# Results from US11185548B2, “Inhibitors of cytochrome P450 family 7 subfamily B member 1 (CYP7B1) for use in treating diseases” (HELMHOLTZ ZENTRUM MÜNCHEN—DEUTSCHES FORSCHUNGSZENTRUM FÜR …, priority 2016, dated 2021).
# “Also recorded” adds a separate entry of the source.
# Legend:
# [1] = test system: IgM cross-linked splenic B cells; assay: ex vivo B cell migration assay towards medium from CSE treated airways; format: cell-based, mouse; conditions: 10% CSE
# Description: (§1) Middle and distal airways from C57BL/6J and Ch25h^−/− mice were isolated and incubated ex vivo as described by Yildirim et al. (Eur Respir J 32, 694-704 (2008)). Briefly, after sacrifice by a ketamine-xylazine over dose, the trachea was cannulated, the lungs removed from the thorax and infused with 1% low-melting agarose dissolved in 1:1 Ham's F12 nutrient medium (Sigma-Aldrich) and distilled water (Gibco, Life Technologies). Airways were dissected under a microscope (Zeiss) from the left lung after the agarose had solidified on ice for 30 min. The isolated airways were washed and cultured in airway epithelial cell medium (PromoCell) at 37° C., 5% CO2.
# B cells were purified from the spleens of C57BL/6J mice by negative selection (B cell Isolation Kit, mouse, Miltenyi Biotec). For the migration assay, primary mouse airways were isolated 1 day prior, treated with 10% cigarette smoke extract (CSE) in airway epithelial cell culture medium or culture medium alone for 24 h and at the same time to inhibit Cyp7b1, clotrimazole was also diluted with culture medium to a final concentration of 1 μM for 1 h prior to the migration assay. […] The supernatants were transferred as conditioned medium to the lower well of 24-well transwell plates (Permeable Polycarbonate Membrane Inserts, Corning, Fisher Scientific), for inducing B cell migration, while the airway samples were snap frozen in liquid nitrogen for RNA isolation. Freshly isolated B cells at 2.5×10^6/ml in 100 μl were activated by unconjugated AffiniPure F(ab′)2 Fragment Goat anti-mouse IgM, μchain specific antibody (1.3 μg/ml, 115-006-020, Jackson Immunoresearch Laboratories) for 1 hr at 37° C. in 5.0 μm pore sized transwell inserts (Permeable Polycarbonate Membrane Inserts, Corning, Fisher Scientific). Transwell inserts were then placed into the wells of conditioned medium and incubated for 3 hr at 37° C. Migrated B cells were collected and counted by Neubauer Chamber and reported as percentage of input.
# Ch25h mRNA = assay: quantitative real time RT-PCR of CSE treated airways: Ch25h; format: cell-based, mouse; conditions: CSE treated airways dissected from C57BL/6 mice, 1 μM clotrimazole
# Description: (§2) 1 ug RNA was reverse transcribed using Random Hexamers and MuLV Reverse Transcriptase (Applied Biosystems). Gene expression was analyzed using SensiFAST SYBR Hi-ROX Kit (Bioline) on a StepOnePlus 96 well Real-Time PCR System (Applied Biosystems). Primer sequences can be found in Table 1. Expression of each gene was calculated relative to the housekeeping gene HPRT1 or Hprt1 as 2^−[…]Ct.
# as §1
# (§3) B cells were purified from the spleens of C57BL/6J mice by negative selection (B cell Isolation Kit, mouse, Miltenyi Biotec). […] Migrated B cells were collected and counted by Neubauer Chamber and reported as percentage of input.
# Cyp7b1 expression = assay: gene expression after 10% CSE + LPS stimulation: Cyp7b1; format: cell-based, mouse; conditions: 10% CSE + 10 μg/mL LPS
# Description: (§4) The cells were incubated for 24h at 37° C., 5% CO2, in a 24 well-plate with or without 10% cigarette smoke extract (CSE, 10%)+lipopolysaccharide (LPS, 10 μg/mL), supplemented or not with the 18 CYP7B1 inhibitors (0.3 and 1 μM). B cells were purified from the spleens of C57BL/6J mice by negative selection (B cell Isolation Kit, mouse, Miltenyi Biotec). Freshly isolated B cells at 2.0×10^6/mL in 100 μL were activated by unconjugated AffiniPure F(ab′)2 Fragment Goat anti-mouse IgM, μchain specific antibody (10 μg/mL, 115-006-020, Jackson Immunoresearch Laboratories) for 1 hr at 37° C. in 5.0 μm pore sized transwell inserts (Permeable Polycarbonate Membrane Inserts, Corning, Fisher Scientific). Migrated B cells were collected, and counted by fluorescence-activated cell sorting (FACS) (Trucount tubes, BD Biosciences).
# as §2, with “10 ng” for “1 ug”, “Primer sequences can be found in Table 1.” left out, “18S” for “HPRT1 or Hprt1”, “2^−ΔCt.” for “2^−[…]Ct.”
# Tnf expression = assay: gene expression after 10% CSE + LPS stimulation: Tnf; format: cell-based, mouse; conditions: 10% CSE + 10 μg/mL LPS
# Description: as §4
# as §2, with “10 ng” for “1 ug”, “Primer sequences can be found in Table 1.” left out, “18S” for “HPRT1 or Hprt1”, “2^−ΔCt.” for “2^−[…]Ct.”
# [2] = test system: C57BL/6 mice exposed to cigarette smoke; assay: CS induced COPD model, clotrimazole therapeutic dosing; format: in vivo, mouse
# Description: Experimental design: In the early treatment group C57BL/6 mice were exposed to filtered air (FA) or cigarette smoke (CS) for 4 months and treated with clotrimazole (i.p. 80 mg/Kg 3 times per week) from months 2 to 4 or oil controls. In the late treatment group C57BL/6 mice were exposed to FA or CS for 6 months and treated with clotrimazole from months 4 to 6 or oil controls.
# 8-12 week old mice were used in all experiments. For the CS induced COPD model, mice were exposed to 100% mainstream CS (John et al., Clinical science 126, 207-221 (2014)) at a particle concentration of 500 mg/m^3, generated from 3R4F research cigarettes (Filter removed, Tobacco Research Institute, University of Kentucky), for 50 min twice/day, 5 days/week for 4 or 6 months. Mice exposed to filtered air were used as controls. For the elastase induced iBALT-independent COPD model, mice were instilled oropharyngeally with a single application of 80 U/Kg body weight Porcine Pancreatic Elastase (PPE) (Sigma Aldrich) in 80 μl PBS. Mice treated with 80 μl PBS were included as controls. For Cyp7b1 inhibition, clotrimazole (Sigma Aldrich) 10 mM in DMSO, was further diluted in Corn oil (Mazola, Unilever) and applied i.p. at a dose of 80 mg/Kg body weight 3 times/week for two months. Mice were treated after two or four months of CS exposure and smoked for a further two months in parallel with the clotrimazole treatment.
# After lung function analysis lungs were lavaged with 3×500 ul aliquots of sterile PBS (Gibco, Life Technologies) supplemented with Complete Protease Inhibitor Cocktail tablets (Roche Diagnostics). Cells were pelleted at 400 g for 20 min and resuspended in 500 μl RPMI-1640 medium (Gibco, Life Technologies) for the total cell count using a Neubauer Chamber. Cytospins of the cell suspension were then prepared and stained using May-Grünwald-Giemsa for differential cell counting (200 cells/sample) using morphological criteria. BAL fluid was retained for mass spectrometry analysis.
# H&E stained tissue sections were analyzed by design-based stereology using an Olympus BX51 light microscope equipped with the new Computer Assisted Stereological Toolbox (newCAST, Visiopharm) as described (John-Schuster et al., American journal of physiology. Lung cellular and molecular physiology 307, L692-706 (2014)), by readers blinded to the study groups. Briefly, for mean chord length (MCL) measurements, 20 frames were selected randomly across multiple sections by the software, using the ×20 objective, and superimposed by a line grid and points. The intercepts of lines on alveolar wall (Lsepta) and points localized on air space (Pair) were counted and calculated as MCL=ΣPair××L(p)/ΣLsepta×0.5, where L(p) is the line length per point. The volume of inflammation (V) was quantified in 50 frames, using the ×40 objective, by counting points hitting inflammatory cell zones (Pinflam). For calculation, the Pinflam were referenced to intercepts of lines with both airways and vessels (Iairway/vessel): V=ΣPinflam×L(p)/ΣIairway/vessel. Further, airway, vessel or septum associated inflammation quantification was classified by the location of the inflammation, and was calculated referring to intercept of lines with airway, vessel, or both, respectively.
# Ch25h expression = assay: gene expression after 10% CSE + LPS stimulation: Ch25h; format: cell-based, mouse; conditions: 10% CSE + 10 μg/mL LPS
# Description: as §4
# as §2, with “10 ng” for “1 ug”, “Primer sequences can be found in Table 1.” left out, “18S” for “HPRT1 or Hprt1”, “2^−ΔCt.” for “2^−[…]Ct.”
# Cyp7b1 mRNA = assay: quantitative real time RT-PCR of CSE treated airways: Cyp7b1; format: cell-based, mouse; conditions: CSE treated airways dissected from C57BL/6 mice, 1 μM clotrimazole
# Description: as §2, §1, §3
# [3] = early and late treatment groups, i.p. 80 mg/Kg 3 times per week
# [4] = early treatment: CS 4 months, i.p. 80 mg/Kg 3 times per week from months 2 to 4
# [5] = late treatment: CS 6 months, i.p. 80 mg/Kg 3 times per week from months 4 to 6
compound,measurement,setting,value
"Clc1ccc(COC(Cn2ccnc2)c2ccc(Cl)cc2Cl)c(Cl)c1 (racemic) [Miconazole, (RS)-1-(2-(2,4-Dichlorobenzyloxy)-2-(2,4-dichlorophenyl)ethyl)-1H-imidazole]",migration of activated B cells towards culture supernatant from CSE-treated airways,[1]; compound 1 μM,impaired B cell migration
"CC(C)(C(=O)c1cccnc1)c1cccnc1 [Metyrapone, 2-methyl-1,2-di(pyridin-3-yl)propan-1-one]",migration of activated B cells towards culture supernatant from CSE-treated airways,[1]; compound 1 μM,impaired B cell migration
"CC(C)c1nc(CN(C)C(=O)N[C@H](C(=O)N[C@@H](Cc2ccccc2)C[C@H](O)[C@H](Cc2ccccc2)NC(=O)OCc2cncs2)C(C)C)cs1 [Ritonavir, 1,3-thiazol-5-ylmethyl N-[(2S,3S,5S)-3-hydroxy-5-[(2S)-3-methyl-2-{[methyl({[2-(propan-2-yl)-1,3-thiazol-4-yl]methyl})carbamoyl]amino}butanamido]-1,6-diphenylhexan-2-yl]carbamate]",migration of activated B cells towards culture supernatant from CSE-treated airways,[1]; compound 0.1 μM,impaired B cell migration
same,migration of activated B cells towards culture supernatant from CSE-treated airways,[1]; compound 1 μM,impaired B cell migration
"Clc1ccccc1C(c1ccccc1)(c1ccccc1)n1ccnc1 [clotrimazole, 1-[(2-Chlorophenyl)(diphenyl)methyl]-1H-imidazole]",Ch25h mRNA abundance,Ch25h mRNA,did not affect Ch25h levels
same,migration of activated B cells towards culture supernatant from CSE-treated airways,[1]; compound 1 μM,significantly impaired the ability of activated B cells to migrate; also recorded: impairs B cell migration
same,induction of Cyp7b1 expression,Cyp7b1 expression,inhibited
same,induction of Cyp7b1 expression,Cyp7b1 expression; listed as Clotrimazole,inhibits the gene expression
same,induction of Tnf (TNFα) expression,Tnf expression,inhibited
same,induction of Tnf (TNFα) expression,Tnf expression; listed as Clotrimazole,inhibits the gene expression
same,cigarette smoke-induced COPD,[2]; [3],protects against and reverses cigarette smoke-induced COPD
same,lung inflammatory responses following exposure to chronic cigarette smoke,[2]; [3],does not attenuate lung inflammatory responses
same,emphysema development (mean chord length),[2]; [4],lack of emphysema development
same,iBALT formation,[2]; [4],significantly reduced iBALT formation
same,lung volume,[2]; [4],no deterioration in lung volume
same,lymphocyte cell numbers in BAL fluid,[2]; [4],reduced macrophage and lymphocyte cell numbers
same,macrophage cell numbers in BAL fluid,[2]; [4],reduced macrophage and lymphocyte cell numbers
same,emphysema (mean chord length),[2]; [5],attenuated
same,iBALT,[2]; [5],attenuated
same,lung volume,[2]; [5],reduced lung volume
same,macrophage cell numbers in BAL fluid,[2]; [5],reduced macrophage cell numbers
same,induction of Ch25h expression,Ch25h expression,inhibited
same,induction of Ch25h expression,Ch25h expression; listed as Clotrimazole,inhibits the gene expression
same,Cyp7b1 mRNA abundance,Cyp7b1 mRNA,sufficient to reduce Cyp7b1 mRNA expression
